For orientation: Ki means a dissociation constant, usually derived from enzyme kinetics or from competition with a known ligand. Usually EC50 stands for the concentration giving half of the maximal effect.

Experiment [1] deals with T1, Melanocortin receptor 4 (Homo sapiens, UniProt P32245). The experiment in a line: Displacement of [125I]-NAD-alpha-MSH from MC4 receptor after 2 hrs by gamma counting in presence of ovalbumin.
For experiment [2], the system named is Rattus norvegicus. The experiment in a line: Antiobesity activity in Sprague-Dawley rat assessed as reduction of food intake at 3 mg/kg, sc qd measured after 7 to 24 hrs relative to control. Further details: scale not given: the % may be the effect or the level left. The settings on record: route subcutaneous. The format is functional.
Experiment [3] concerns the target Melanocortin receptor 3 (Homo sapiens, UniProt P41968). The experiment in a line: Displacement of [125I]-NAD-alpha-MSH from human recombinant MC3 receptor expressed in BHK570 cells after 1 hr in presence of ovalbumin. It is filed as cell-based. On the technique in general: Displacement assays read how much labelled ligand stays bound in the presence of the test substance.

The subject of experiment [4] is Rattus norvegicus. The experiment in a line: Antiobesity activity in Sprague-Dawley rat assessed as reduction of food intake at 3 mg/kg, sc qd measured after 24 to 48 hrs relative to control. It is filed as functional. The conditions noted are these: route subcutaneous.
For experiment [5], the target named is Melanocyte-stimulating hormone receptor (Homo sapiens, UniProt Q01726). The experiment in a line: Displacement of [125I]-NAD-alpha-MSH from human recombinant MC1 receptor expressed in BHK570 cells after 90 mins in presence of ovalbumin. It is filed as cell-based.
The test system of experiment [6] is Rattus norvegicus. The experiment in a line: Antiobesity activity in Sprague-Dawley rat assessed as reduction of food intake at 3 mg/kg, sc qd measured up to 7 hrs relative to control. It is filed as functional. Further details: scale not given: the % may be the effect or the level left. The settings on record: route subcutaneous.
For experiment [7], the target named is Melanocortin receptor 5 (Homo sapiens, UniProt P33032). The experiment in a line: Displacement of [125I]-NAD-alpha-MSH from human recombinant MC3 receptor human MC5 expressed in BHK570 cells after 1 hr in presence of ovalbumin. The format is cell-based.
The target in experiment [8] is T1, Melanocortin receptor 4. The experiment in a line: Agonist activity at human recombinant MC4 receptor expressed in BHK570 cells assessed as induction of […] accumulation in presence of 0.1% human serum albumin. The format is functional, cell-based.

A value given as a limit tells only on which side of the number the result lay.

Melanocortin receptor 3, sequence (P41968 whole entry): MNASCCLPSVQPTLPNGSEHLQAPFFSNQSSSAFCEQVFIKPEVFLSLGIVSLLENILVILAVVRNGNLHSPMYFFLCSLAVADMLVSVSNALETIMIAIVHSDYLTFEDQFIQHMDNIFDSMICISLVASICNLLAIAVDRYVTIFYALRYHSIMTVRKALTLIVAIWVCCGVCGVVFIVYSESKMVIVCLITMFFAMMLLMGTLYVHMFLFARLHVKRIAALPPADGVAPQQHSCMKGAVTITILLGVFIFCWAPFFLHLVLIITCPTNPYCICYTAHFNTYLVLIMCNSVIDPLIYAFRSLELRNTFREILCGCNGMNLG
T1 sequence (P32245 whole entry): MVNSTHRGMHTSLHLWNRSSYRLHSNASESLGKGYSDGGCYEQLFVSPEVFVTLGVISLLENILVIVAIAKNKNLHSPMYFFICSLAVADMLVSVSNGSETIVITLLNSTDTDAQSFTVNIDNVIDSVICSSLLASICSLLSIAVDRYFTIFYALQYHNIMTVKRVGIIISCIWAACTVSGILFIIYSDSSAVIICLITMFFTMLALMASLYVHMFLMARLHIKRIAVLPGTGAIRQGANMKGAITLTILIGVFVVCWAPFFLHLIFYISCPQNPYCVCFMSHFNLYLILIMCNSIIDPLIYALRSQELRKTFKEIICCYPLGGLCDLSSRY
Melanocyte-stimulating hormone receptor, sequence (Q01726 whole entry): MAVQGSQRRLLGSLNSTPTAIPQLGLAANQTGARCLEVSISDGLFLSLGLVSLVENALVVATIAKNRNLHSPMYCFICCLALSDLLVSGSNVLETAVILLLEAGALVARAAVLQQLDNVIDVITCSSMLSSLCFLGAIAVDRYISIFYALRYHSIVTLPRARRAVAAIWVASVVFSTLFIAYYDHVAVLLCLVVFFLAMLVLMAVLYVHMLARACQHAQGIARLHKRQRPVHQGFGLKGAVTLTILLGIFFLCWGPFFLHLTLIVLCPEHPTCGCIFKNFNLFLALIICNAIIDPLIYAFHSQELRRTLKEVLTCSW
Melanocortin receptor 5, sequence (P33032 whole entry): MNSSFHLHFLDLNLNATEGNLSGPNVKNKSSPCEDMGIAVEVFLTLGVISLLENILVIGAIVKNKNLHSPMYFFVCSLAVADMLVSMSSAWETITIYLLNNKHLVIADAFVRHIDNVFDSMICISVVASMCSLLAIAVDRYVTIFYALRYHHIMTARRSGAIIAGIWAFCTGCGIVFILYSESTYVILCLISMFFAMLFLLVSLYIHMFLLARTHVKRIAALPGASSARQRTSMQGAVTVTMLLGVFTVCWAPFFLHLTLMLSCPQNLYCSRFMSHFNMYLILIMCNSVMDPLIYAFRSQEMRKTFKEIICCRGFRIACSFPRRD

Consider `CCCC[C@H](NC(=O)[C@H](CCC(=O)O)NC(=O)[C@H](Cc1c[nH]cn1)NC(=O)[C@H](CCC(=O)O)NC(=O)[C@H](CCC(=O)O)NC(=O)CNC(=O)COCCOCCNC(=O)CCCCCCCCCCCCCCCc1nnn[nH]1)C(=O)N[C@H]1CCC(=O)NCCCC[C@@H](C(N)=O)NC(=O)[C@H](Cc2c[nH]c3ccccc23)NC(=O)[C@H](CCCNC(=N)N)NC(=O)[C@@H](Cc2ccccc2)NC(=O)[C@@H]2C[C@@H](O)CN2C1=O`, for which the Ki in experiment [1] came to 7.8 nM; in experiment [3], 450 nM; in experiment [5], 8100 nM; in experiment [7], 110 nM. Also, the Activity in experiment [2] was found to be 79%; in experiment [6], 75%. Also, the “Food intake relative to control” value in experiment [4] was determined as 88%.
As for `CCCC[C@H](NC(=O)[C@H](CCC(=O)O)NC(=O)[C@H](CCC(=O)O)NC(=O)[C@H](CCC(=O)O)NC(=O)[C@H](CCC(=O)O)NC(=O)CNC(=O)COCCOCCNC(=O)CCCCCCCCCCCCCCCc1nnn[nH]1)C(=O)N[C@H]1CCC(=O)NCCCC[C@@H](C(N)=O)NC(=O)[C@H](Cc2c[nH]c3ccccc23)NC(=O)[C@H](CCCNC(=N)N)NC(=O)[C@@H](Cc2ccccc2)NC(=O)[C@@H]2C[C@@H](O)CN2C1=O`, the Ki in experiment [1] was 250 nM; in experiment [3], 1600 nM; in experiment [5], greater than 10000 nM; in experiment [7], 710 nM.
As for `CCCC[C@H](NC(=O)[C@H](CO)NC(=O)[C@H](CCCCN=C(N)N)NC(=O)[C@H](CCC(N)=O)NC(=O)[C@H](CO)NC(=O)CNC(C)=O)C(=O)N[C@H]1CCC(=O)NCCCC[C@@H](C(N)=O)NC(=O)[C@H](Cc2c[nH]c3ccccc23)NC(=O)[C@H](CCCN=C(N)N)NC(=O)[C@@H](Cc2ccccc2)NC(=O)[C@@H]2C[C@@H](O)CN2C1=O`, the Ki came to 1 nM in experiment [1], 22 nM in experiment [3], 73 nM in experiment [5] and 4.3 nM in experiment [7]. Moreover, the EC50 in experiment [8] amounted to 0.47 nM.
Regarding `CCCC[C@H](NC(=O)[C@@H](N)CNC(=O)[C@H](Cc1cnc[nH]1)NC(=O)[C@H](CCC(N)=O)NC(=O)[C@H](CO)NC(=O)CNC(=O)COCCOCCNC(=O)CCCCCCCCCCCCCCCc1nnn[nH]1)C(=O)N[C@H]1CCC(=O)NCCCC[C@@H](C(N)=O)NC(=O)[C@H](Cc2c[nH]c3ccccc23)NC(=O)[C@H](CCCN=C(N)N)NC(=O)[C@@H](Cc2ccccc2)NC(=O)[C@@H]2C[C@@H](O)CN2C1=O`, the Ki in experiment [1] amounted to 0.17 nM; in experiment [3], 121 nM; in experiment [5] it was 700 nM; in experiment [7], 40 nM. Further, in experiment [8], the EC50 stood at 85 nM.
Regarding `CCCC[C@H](NC(=O)[C@H](CN)NC(=O)[C@H](Cc1cnc[nH]1)NC(=O)[C@H](CCC(N)=O)NC(=O)[C@H](CO)NC(=O)CNC(=O)COCCOCCNC(=O)CCCCCCCCCCCCCCCc1nnn[nH]1)C(=O)N[C@H]1CCC(=O)NCCCC[C@@H](C(N)=O)NC(=O)[C@H](Cc2c[nH]c3ccccc23)NC(=O)[C@H](CCCN=C(N)N)NC(=O)[C@@H](Cc2ccccc2)NC(=O)[C@@H]2C[C@@H](O)CN2C1=O`, the Ki in experiment [1] is 0.17 nM; in experiment [3] it was 42 nM; in experiment [5] it was 400 nM; in experiment [7], 10 nM. Besides, the EC50 in experiment [8] was determined as 62 nM.
Turning to `CCCC[C@H](NC(=O)[C@H](CCC(=O)O)NC(=O)[C@H](CCCN=C(N)N)NC(=O)[C@H](CCC(=O)O)NC(=O)[C@H](CCC(=O)O)NC(=O)CNC(=O)COCCOCCNC(=O)CCCCCCCCCCCCCCCc1nnn[nH]1)C(=O)N[C@H]1CCC(=O)NCCCC[C@@H](C(N)=O)NC(=O)[C@H](Cc2c[nH]c3ccccc23)NC(=O)[C@H](CCCN=C(N)N)NC(=O)[C@@H](Cc2ccccc2)NC(=O)[C@@H]2C[C@@H](O)CN2C1=O`, the Ki in experiment [1] is 35 nM; in experiment [3], 1100 nM; in experiment [5] it was greater than 10000 nM; in experiment [7] it was 270 nM. The EC50 in experiment [8] was 270 nM.

(Values after ChEMBL document CHEMBL2069212, “Identification and in vivo and in vitro characterization of long acting and melanocortin 4 receptor (MC4-R) selective α-melanocyte-stimulating hormone (α-MSH) analogues” (J Med Chem, 2012).)
